Consider 20 compounds from patent US20230143612A1 (Arbutus Biopharma Corporation, priority 2020, published 2023).

PD-L1 His protein / PD-1 Fc protein, sequence (Q9NZQ7 19-238 limits assumed): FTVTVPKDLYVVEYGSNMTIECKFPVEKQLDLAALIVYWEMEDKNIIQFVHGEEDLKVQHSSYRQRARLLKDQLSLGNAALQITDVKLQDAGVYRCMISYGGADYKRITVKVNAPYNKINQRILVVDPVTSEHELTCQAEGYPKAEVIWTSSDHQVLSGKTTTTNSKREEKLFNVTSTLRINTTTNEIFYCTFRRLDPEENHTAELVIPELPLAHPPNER

In this assay the target is PD-L1 His protein / PD-1 Fc protein (Homo sapiens, UniProt Q9NZQ7). Description: HTRF Assay (PD-1/PD-L1 interaction). In kind it is binding. As to conditions: PD-L1 His 6 nM, PD-1 Fc 6 nM. The procedure, abridged:
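HTRF: PD-L1 His (6 nM final), compound (3-fold dilutions, 20 μM to 0.001 μM final) and PD-1 Fc (6 nM final) preincubated 15 min at room temperature. Anti-human IgG-XL665 and anti-6HIS Tb cryptate (mixed at 6.7 nM and 0.35 nM) then added for 1 h at room temperature before reading.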
Background: In TR-FRET formats the signal depends on donor and acceptor labels being close together.
With `COc1nc(-c2cccc(-c3cccc(-c4cn5c(CNC[C@@H]6CCC(=O)N6)cnc5cn4)c3Cl)c2Cl)ccc1CNC[C@@H]1CCC(=O)N1` [Example 309, (S)-5-((((6-(2,2′-Dichloro-3′-(3-(((((S)-5-oxopyrrolidin-2-yl)methyl)amino)methyl)imidazo[1,2-a]pyrazin-6-yl)-[1,1′-biphenyl]-3-yl)-2-methoxypyridin-3-yl)methyl)amino)methyl)pyrrolidin-2-one], it took 0.3 nM to reach half-maximal inhibition (IC50).

Turning to `COc1nc(-c2cccc(-c3cccc(-c4cnc5c(CNC[C@@H]6CCC(=O)N6)cnn5c4)c3Cl)c2Cl)ccc1CNC[C@@H]1CCC(=O)N1` [Example 310, (S)-5-((((6-(2,2′-Dichloro-3′-(3-(((((S)-5-oxopyrrolidin-2-yl)methyl)amino)methyl)pyrazolo[1,5-a]pyrimidin-6-yl)-[1,1′-biphenyl]-3-yl)-2-methoxypyridin-3-yl)methyl)amino)methyl)pyrrolidin-2-one], the IC50 – broadly, the concentration that gives 50% inhibition – stood at 0.2 nM. This IC50 and that of the compound before are within 1.5-fold of each other.

In the case of `COc1nc(-c2cccc(-c3cccc(-c4cnc5cc(CNC[C@@H]6CCC(=O)N6)oc5c4)c3Cl)c2Cl)ccc1CNC[C@@H]1CCC(=O)N1` [Example 311, (S)-5-((((6-(2,2′-Dichloro-3′-(2-(((((S)-5-oxopyrrolidin-2-yl)methyl)amino)methyl)furo[3,2-b]pyridin-6-yl)-[1,1′-biphenyl]-3-yl)-2-methoxypyridin-3-yl)methyl)amino)methyl)pyrrolidin-2-one], inhibition was half-maximal at 5 nM (IC50).

`COc1nc(-c2cccc(-c3cccc(-c4ccc5c(n4)nc(CNC[C@@H]4CCC(=O)N4)n5C)c3Cl)c2Cl)ccc1CNC[C@@H]1CCC(=O)N1` [Example 312, (S)-5-((((6-(2,2′-Dichloro-3′-(1-methyl-2-(((((S)-5-oxopyrrolidin-2-yl)methyl)amino)methyl)-1H-imidazo[4,5-b]pyridin-5-yl)-[1,1′-biphenyl]-3-yl)-2-methoxypyridin-3-yl)methyl)amino)methyl)pyrrolidin-2-one] returned an IC50 of 0.1 nM.

`COc1nc(-c2cccc(-c3cccc(-c4ccc5c(n4)nc(CN[C@H]4C[C@H](O)C4)n5C)c3Cl)c2Cl)ccc1CN[C@H]1C[C@H](O)C1` [Example 313, (1r,3r)-3-(((6-(2,2′-Dichloro-3′-(2-((((1r,3r)-3-hydroxycyclobutyl)amino)methyl)-1-methyl-1H-imidazo[4,5-b]pyridin-5-yl)-[1,1′-biphenyl]-3-yl)-2-methoxypyridin-3-yl)methyl)amino)cyclobutan-1-ol] came in with an IC50 of 1.9 nM.

Regarding `COc1nc(-c2cccc(-c3cccc(-c4ccc5nc(CNC[C@@H]6CCC(=O)N6)n(C)c5n4)c3Cl)c2Cl)ccc1CNC[C@@H]1CCC(=O)N1` [Example 314, (S)-5-((((6-(2,2′-Dichloro-3′-(3-methyl-2-(((((S)-5-oxopyrrolidin-2-yl)methyl)amino)methyl)-3H-imidazo[4,5-b]pyridin-5-yl)-[1,1′-biphenyl]-3-yl)-2-methoxypyridin-3-yl)methyl)amino)methyl)pyrrolidin-2-one], 3.9 nM corresponded to half-maximal inhibition (IC50).

In turn, `COc1nc(-c2cccc(-c3cccc(-c4ccc5nc(CN[C@H]6C[C@H](O)C6)n(C)c5n4)c3Cl)c2Cl)ccc1CN[C@H]1C[C@H](O)C1` [Example 315] returned an IC50 of 0.4 nM.

Regarding `COc1nc(-c2cccc(-c3cccc(-c4ccn5c(=O)c(CNCCCO)cnc5c4)c3Cl)c2Cl)ccc1CNC[C@@H]1CCC(=O)N1` [Example 316, (S)-8-(2,2′-Dichloro-3′-(6-methoxy-5-((((5-oxopyrrolidin-2-yl)methyl)-amino)methyl)-pyridin-2-yl)-[1,1′-biphenyl]-3-yl)-3-(((3-hydroxypropyl)amino)methyl)-4H-pyrido[1,2-a]pyrimidin-4-one], inhibition was half-maximal at 0.3 nM (IC50). The IC50 values of the last two compounds are within 1.5-fold of each other.

As to `COc1nc(-c2cccc(-c3cccc(-c4ccn5c(=O)c(CN(C)CCCO)cnc5c4)c3Cl)c2Cl)ccc1CNC[C@@H]1CCC(=O)N1` [Example 317, (S)-8-(2,2′-Dichloro-3′-(6-methoxy-5-((((5-oxopyrrolidin-2-yl)methyl)amino)methyl)pyridin-2-yl)-[1,1′-biphenyl]-3-yl)-3-(((3-hydroxypropyl)(methyl)amino)methyl)-4H-pyrido[1,2-a]pyrimidin-4-one], half-maximal inhibition (IC50) was put at 0.2 nM.

As to `COc1nc(-c2cccc(-c3cccc(-c4ccn5c(=O)c(CN(C)[C@H]6C[C@](C)(O)C6)cnc5c4)c3Cl)c2Cl)ccc1CNC[C@@H]1CCC(=O)N1` [Example 318, 8-(2,2′-Dichloro-3′-(6-methoxy-5-(((((S)-5-oxopyrrolidin-2-yl)methyl)-amino)-methyl)-pyridin-2-yl)-[1,1′-biphenyl]-3-yl)-3-((((1r,3r)-3-hydroxy-3-methylcyclobutyl)(methyl)amino)methyl)-4H-pyrido[1,2-a]pyrimidin-4-one], the IC50 was 0.1 nM.

In turn, `COc1nc(-c2cccc(-c3cccc(-c4ccn5c(=O)c(CN(C)C[C@H](C)O)cnc5c4)c3Cl)c2Cl)ccc1CNC[C@@H]1CCC(=O)N1` [Example 319, 8-[2-Chloro-3-[2-chloro-3-[6-methoxy-5-[[[(2S)-5-oxopyrrolidin-2-yl]methylamino]methyl]-2-pyridyl]phenyl]phenyl]-3-[[[(2S)-2-hydroxypropyl]-methyl-amino]methyl]pyrido[1,2-a]pyrimidin-4-one] returned an IC50 of 0.1 nM.

In the case of `COc1nc(-c2cccc(-c3cccc(-c4ccn5c(=O)c(CNCCN6CCCC6=O)cnc5c4)c3Cl)c2Cl)ccc1CNCCN1CCCC1=O` [Example 321, 8-[2-Chloro-3-[2-chloro-3-[6-methoxy-5-[[2-(2-oxopyrrolidin-1-yl)ethylamino]methyl]-2-pyridyl]phenyl]phenyl]-3-[[2-(2-oxopyrrolidin-1-yl)ethylamino]methyl]pyrido[1,2-a]pyrimidin-4-one], the IC50 stood at 0.2 nM.

With `COc1nc(-c2cccc(-c3cccc(-c4ccn5c(=O)c(CNC6CCN(C(C)=O)CC6)cnc5c4)c3Cl)c2Cl)ccc1CNC1CCN(C(C)=O)CC1` [Example 322, 3-[[(1-Acetyl-4-piperidyl)amino]methyl]-8-[3-[3-[5-[[(1-acetyl-4-piperidyl)amino]methyl]-6-methoxy-2-pyridyl]-2-chloro-phenyl]-2-chloro-phenyl]pyrido[1,2-a]pyrimidin-4-one], it took 0.1 nM to reach half-maximal inhibition (IC50).

With `COc1nc(-c2cccc(-c3cccc(-c4cc(C)n5c(=O)c(C6=NCC(O)CN6)cnc5c4)c3Cl)c2Cl)ccc1CNC[C@@H]1CCC(=O)N1` (stereo partly drawn) [Example 323, 8-(2,2′-Dichloro-3′-(6-methoxy-5-(((((S)-5-oxopyrrolidin-2-yl)methyl)amino)methyl)pyridin-2-yl)-[1,1′-biphenyl]-3-yl)-3-(5-hydroxy-1,4,5,6-tetrahydropyrimidin-2-yl)-6-methyl-4H-pyrido[1,2-a]pyrimidin-4-one], half-maximal inhibition (IC50) was put at 5.9 nM.

Regarding `COc1nc(-c2cccc(-c3cccc(-c4ccc5nc(CNC[C@H](C)O)cc(=O)n5c4)c3Cl)c2Cl)ccc1CNC[C@@H]1CCC(=O)N1` [Example 324, 7-(2,2′-Dichloro-3′-(6-methoxy-5-(((((S)-5-oxopyrrolidin-2-yl)methyl)amino)methyl)pyridin-2-yl)-[1,1′-biphenyl]-3-yl)-2-((((S)-2-hydroxypropyl)amino)methyl)-4H-pyrido[1,2-a]pyrimidin-4-one], the IC50 is 5.7 nM.

In turn, `COc1nc(-c2cccc(-c3cccc(-c4ccc5nc(CN[C@H]6C[C@](C)(O)C6)cc(=O)n5c4)c3Cl)c2Cl)ccc1CNC[C@@H]1CCC(=O)N1` [Example 325, 7-(2,2′-dichloro-3′-(6-methoxy-5-(((((S)-5-oxopyrrolidin-2-yl)methyl)amino)methyl)pyridin-2-yl)-[1,1′-biphenyl]-3-yl)-2-((((1r,3r)-3-hydroxy-3-methylcyclobutyl)amino)methyl)-4H-pyrido[1,2-a]pyrimidin-4-one] came in with an IC50 of 0.1 nM. This IC50 is about 57-fold lower than that of the compound before.

Consider `COc1nc(-c2cccc(-c3cccc(-c4ccn5c(=O)c(CN6CCNC(=O)CC6)cnc5c4)c3Cl)c2Cl)ccc1CNC[C@@H]1CCC(=O)N1` [Example 327, (S)-8-(2,2′-Dichloro-3′-(6-methoxy-5-((((5-oxopyrrolidin-2-yl)methyl)-amino)methyl)-pyridin-2-yl)-[1,1′-biphenyl]-3-yl)-3-((5-oxo-1,4-diazepan-1-yl)methyl)-4H-pyrido[1,2-a]pyrimidin-4-one], for which the IC50 was determined as 0.1 nM.

Take `COc1nc(-c2cccc(-c3cccc(-c4ccn5c(=O)c(CN6CCC(CO)(CO)C6)cnc5c4)c3Cl)c2Cl)ccc1CNC[C@@H]1CCC(=O)N1` [Example 328, (S)-3-((3,3-Bis(hydroxymethyl)pyrrolidin-1-yl)methyl)-8-(2,2′-dichloro-3′-(6-methoxy-5-((((5-oxopyrrolidin-2-yl)methyl)amino)methyl)pyridin-2-yl)-[1,1′-biphenyl]-3-yl)-4H-pyrido[1,2-a]pyrimidin-4-one]: the IC50 came out at 0.1 nM.

In the case of `COc1nc(-c2cccc(-c3cccc(-c4ccn5c(=O)c(CN6CC7(C6)CN(C(C)=O)C7)cnc5c4)c3Cl)c2Cl)ccc1CNC[C@@H]1CCC(=O)N1` [Example 329, (S)-3-((6-Acetyl-2,6-diazaspiro[3.3]heptan-2-yl)methyl)-8-(2,2′-dichloro-3′-(6-methoxy-5-((((5-oxopyrrolidin-2-yl)methyl)amino)methyl)pyridin-2-yl)-[1,1′-biphenyl]-3-yl)-4H-pyrido[1,2-a]pyrimidin-4-one], the IC50 was 0.1 nM.

Compound `COc1nc(-c2cccc(-c3cccc(-c4ccc(CN(C=O)C[C@@H]5CCC(=O)N5)c(OC)n4)c3Cl)c2Cl)ccc1CNC[C@@H]1CCC(=O)N1` [Example 330, N-((6-(2,2′-Dichloro-3′-(6-methoxy-5-(((((S)-5-oxopyrrolidin-2-yl)methyl)amino)methyl)pyridin-2-yl)-[1,1′-biphenyl]-3-yl)-2-methoxypyridin-3-yl)methyl)-N—(((S)-5-oxopyrrolidin-2-yl)methyl)formamide] gave an IC50 of 0.8 nM.
